{
  "source": "patent US8324212B2",
  "about": "“Compounds for the treatment of hepatitis C” (Bristol-Myers Squibb Company, priority 2010, dated 2012)",
  "key": {"[1]": {"molecular_target": "T1, HCV NS5B RdRp genotype 1b (Hepatitis C virus genotype 1b, UniProt Q9WMX2)", "T1 construct": "The cDNA encoding the NS5B protein of HCV, genotype 1b; made in house; host or cells: E. coli BL21 (DE3)", "T1 sequence (Q9WMX2 2420-2992)": "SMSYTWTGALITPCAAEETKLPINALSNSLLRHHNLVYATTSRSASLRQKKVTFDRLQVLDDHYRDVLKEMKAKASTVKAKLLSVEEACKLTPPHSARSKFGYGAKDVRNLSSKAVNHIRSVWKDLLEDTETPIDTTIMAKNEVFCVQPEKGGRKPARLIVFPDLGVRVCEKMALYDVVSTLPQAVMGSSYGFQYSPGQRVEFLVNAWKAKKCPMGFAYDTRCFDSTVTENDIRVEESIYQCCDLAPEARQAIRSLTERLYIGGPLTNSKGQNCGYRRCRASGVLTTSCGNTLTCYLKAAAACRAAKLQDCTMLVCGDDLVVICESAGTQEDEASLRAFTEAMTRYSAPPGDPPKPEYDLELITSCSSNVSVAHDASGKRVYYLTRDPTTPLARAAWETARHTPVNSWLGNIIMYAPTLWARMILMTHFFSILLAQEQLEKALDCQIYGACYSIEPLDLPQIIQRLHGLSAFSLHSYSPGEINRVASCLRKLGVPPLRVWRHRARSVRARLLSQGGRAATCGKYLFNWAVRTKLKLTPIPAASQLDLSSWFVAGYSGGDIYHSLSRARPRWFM", "test": "HCV NS5B RdRp enzyme assay", "format": "biochemical", "conditions": "standard or modified assay not stated", "description": "HCV NS5B RdRp cloning, expression, and purification. The cDNA encoding the NS5B protein of HCV, genotype 1b, was cloned into the pET21a expression vector. The protein was expressed with an 18 amino acid C-terminal truncation to enhance the solubility. The E. coli competent cell line BL21 (DE3) was used for expression of the protein. Cultures were grown at 37° C. for ˜4 hours until the cultures reached an optical density of 2.0 at 600 nm. The cultures were cooled to 20° C. and induced with 1 mM IPTG. Fresh ampicillin was added to a final concentration of 50 μg/ml and the cells were grown overnight at 20° C.\nCell pellets (3L) were lysed for purification to yield 15-24 mgs of purified NS5B. The lysis buffer consisted of 20 mM Tris-HCl, pH 7.4, 500 mM NaCl, 0.5% triton X-100, 1 mM DTT, 1 mM EDTA, 20% glycerol, 0.5 mg/ml lysozyme, 10 mM MgCl2, 15 ug/ml deoxyribonuclease I, and Complete TM protease inhibitor tablets (Roche). After addition of the lysis buffer, frozen cell pellets were resuspended using a tissue homogenizer. To reduce the viscosity of the sample, aliquots of the lysate were sonicated on ice using a microtip attached to a Branson sonicator. The sonicated lysate was centrifuged at 100,000×g for 1 hr at 4° C. and filtered through a 0.2 μm filter unit (Corning).\nThe protein was purified using three sequential chromatography steps: Heparin sepharose CL-6B, polyU sepharose 4B, and Hitrap SP sepharose (Pharmacia). The chromatography buffers were identical to the lysis buffer but contained no lysozyme, deoxyribonuclease I, MgCl2 or protease inhibitor and the NaCl concentration of the buffer was adjusted according to the requirements for charging the protein onto the column. Each column was eluted with a NaCl gradient which varied in length from 5-50 column volumes depending on the column type. After the final chromatography step, the resulting purity of the enzyme is >90% based on SDS-PAGE analysis. The enzyme was aliquoted and stored at −80° C.\nStandard HCV NS5B RdRp enzyme assay. HCV RdRp genotype 1b assays were run in a final volume of 60 μl in 96 well plates (Costar 3912). The assay buffer is composed of 20 mM Hepes, pH 7.5, 2.5 mM KCl, 2.5 mM MgCl2, 1 mM DTT, 1.6 U RNAse inhibitor (Promega N2515), 0.1 mg/ml BSA (Promega R3961), and 2% glycerol. All compounds were serially diluted (3-fold) in DMSO and diluted further in water such that the final concentration of DMSO in the assay was 2%. HCV RdRp genotype 1b enzyme was used at a final concentration of 28 nM. A polyA template was used at 6 nM, and a biotinylated oligo-dT12 primer was used at 180 nM final concentration. […] Plates were read on a Packard Top Count NXT after >1 hr incubation at room temperature. […]\nIC50 values for compounds were determined using seven different [I]. […]"}, "[2]": {"test_system": "HCV replicon", "test": "HCV replicon assay (FRET / luciferase reporter)", "format": "cell-based", "conditions": "Hepatitis C virus; HCV replicon cells (HUH-7)", "text": "FRET Assay Preparation. To perform the HCV FRET screening assay, 96-well cell culture plates were used. The FRET peptide (Anaspec, Inc.) (Taliani et al., Anal. Biochem. 1996, 240, 60-67) contains a fluorescence donor, EDANS, near one end of the peptide and an acceptor, DABCYL, near the other end. The fluorescence of the peptide is quenched by […] resonance energy transfer (RET) between the donor and the acceptor, but as the NS3 protease cleaves the peptide the products are released from RET quenching and the fluorescence of the donor becomes apparent. The assay reagent was made as follows: 5× cell Luciferase cell culture lysis reagent from Promega (#E153A) diluted to 1× with dH2O, NaCl added to 150 mM final, the FRET peptide diluted to 20 μM final from a 2 mM stock. […]\nAssays. […] After reading in a Cytoflour 4000 instrument (PE Biosystems), plates were rinsed with PBS and then used for FRET assay by the addition of 30 ul of the FRET peptide assay reagent described above (FRET Assay Preparation) per well. The plate was then placed into the Cytoflour 4000 instrument which had been set to 340 excite/490 emission, automatic mode for 20 cycles and the plate read in a kinetic mode. Typically, the signal to noise using an endpoint analysis after the reads was at least three-fold. Alternatively, after Alamar blue reading, plates were rinsed with PBS, 50 ul of DMEM (high glucose) without phenol red was added and plates were then used for luciferase assay using the Promega Dual-Glo Luciferase Assay System.\nCompound analysis was determined by quantification of the relative HCV replicon inhibition and the relative cytotoxicity values. To calculate cytoxicity values, the average Alamar Blue fluorescence signals from the control wells were set as 100% non-toxic. […]"}, "[3]": {"test_system": "HCV", "conditions": "cited from earlier work"}},
  "data": [
    {"compound": "CNC(=O)c1c(-c2ccc(F)cc2)nn2ncc(-c3cc(C(=O)NC4(c5ccccc5)CC4)ccc3C)cc12", "note": "[Example 1, 2-(4-fluorophenyl)-N-methyl-5-(2-methyl-5-(1-phenylcyclopropylcarbamoyl)phenyl)pyrazolo[1,5-b]pyridazine-3-carboxamide]", "values": [
      {"measurement": "IC50", "setting": "[1]", "value": "< 17", "unit": "nM"},
      {"measurement": "EC50", "setting": "[2]", "value": 5, "unit": "nM"}
    ]},
    {"compound": "CNC(=O)c1c(-c2ccc(F)cc2)oc2cc(N(CCO)S(C)(=O)=O)c(C3CC3)cc12", "note": "[HCV-796]", "values": [
      {"measurement": "toxicity during extended dosing", "setting": "[3]; patients, extended dosing of the combination regimens", "value": "hepatic toxicity observed"},
      {"measurement": "HCV RNA levels in patients", "setting": "[3]; single agent or combined with interferon and ribavirin", "value": "showed an ability to reduce HCV RNA levels in patients"}
    ]},
    {"compound": "CNC(=O)c1c(-c2ccc(F)cc2)nn2ncc(-c3cc(C(=O)NC4(c5ccccc5)CC4)c(OC)cc3C)cc12", "note": "[Example 3, 2-(4-fluorophenyl)-5-(4-methoxy-2-methyl-5-(1-phenylcyclopropylcarbamoyl)phenyl)-N-methylpyrazolo[1,5-b]pyridazine-3-carboxamide]", "values": [
      {"measurement": "IC50", "setting": "[1]", "value": 11, "unit": "nM"},
      {"measurement": "EC50", "setting": "[2]", "value": 2, "unit": "nM"}
    ]},
    {"compound": "CNC(=O)c1c(-c2ccc(F)cc2)nn2ncc(-c3cc(C(=O)NC4(c5ncccn5)CC4)c(OC)cc3C)cc12", "note": "[Example 4, 2-(4-fluorophenyl)-5-(4-methoxy-2-methyl-5-(1-(pyrimidin-2-yl)cyclopropylcarbamoyl)phenyl)-N-methylpyrazolo[1,5-b]pyridazine-3-carboxamide]", "values": [
      {"measurement": "IC50", "setting": "[1]", "value": 14, "unit": "nM"},
      {"measurement": "EC50", "setting": "[2]", "value": 12, "unit": "nM"}
    ]},
    {"compound": "CNC(=O)c1c(-c2ccc(F)cc2)nn2nccc(-c3cc(C(=O)NC4(c5ccccc5)CC4)ccc3C)c12", "note": "[Example 2, 2-(4-fluorophenyl)-N-methyl-4-(2-methyl-5-(1-phenylcyclopropylcarbamoyl)phenyl)pyrazolo[1,5-b]pyridazine-3-carboxamide]", "values": [
      {"measurement": "IC50", "setting": "[1]", "value": 3060, "unit": "nM"}
    ]}
  ]
}
